Consider 4 compounds from US5268308A, “Immunoassay for pyridostigmine” (priority 1989, dated 1993).

Each structure is given as a SMILES string.

The test has as its target Pyridostigmine Antibody. In words: Cross-reactivity with pyridostigmine antibody in RIA (competition with labeled pyridostigmine). It is filed as binding, rabbit (male New Zealand white). The following applies: labeled pyridostigmine 5000 DPM; maximum tested 500 ng. As for the experimental part: Antibodies to the pyridostigmine-BSA immunogen were produced by injecting male New Zealand white rabbits. Prior to injection, the immunogen was emulsified with an equal volume of complete Freund's adjuvant, purchased from Difco Laboratories. The initial immunization consisted of 0.8 mg of protein injected intracutaneously into the back of the rabbits. Booster injections containing 0.8 mg of immunogen and incomplete Freund's adjuvant were administered every one or two months for the next seven months. Blood was collected one week after each booster injection from the central ear vein. The blood was allowed to clot at room temperature and then centrifuged at 1500×g for 15 minutes. The separated serum was stored frozen at -20° C. until assayed for the presence of pyridostigmine antibody. […] FIG. 1 is the antibody dilution curve for pyridostigmine.
In the assay procedure tritiated pyridostigmine having specificity of […] was used as tracer. The dilution of tracer, antisera and pyridostigmine standards were made using 0.01 M phosphate buffer containing 150 mM sodium chloride with a pH of 7.4.. […] Both standard and sample tubes were always analyzed in duplicate. The assay was carried out according to the protocol shown in. Table 1 with the reagents were added to the assay tubes in the order shown in.
According to the protocol for the RIA of the present invention, after the addition of antisera, the contents of the tubes were mixed and incubated for 3 hours at 4° C. The antigen which bound to the antibody was separated by adding 100% saturated ammonium sulfate and centrifuging at 2500×g for 15 minutes. After aspiration of the supernatant, the precipitate was washed one time with 50% saturated ammonium sulfate; then the mixture was centrifuged and the supernatent removed. The precipitate was dissolved in 1.0 ml of distilled water, and the solution was transferred to a scintillation vial containing 10.0 ml of acquasol.
Cross-reactivity of various compounds with pyridostigmine antibody was determined in the RIA. […] Each compound was tested for cross-reactivity with the antibody. The maximum concentration of each compound tested was 500 ng.
On to `C[n+]1cccc(O)c1` [3-Hydroxy-N-methyl-pyridostigmine], for which the “IC 50 (50% inhibition of binding of 3H-pyridostigmine to the antibody)” value is > 500 ng.
In the case of `CN(C)C(=O)Oc1cccc([N+](C)(C)C)c1` [Neostigmine], the “IC 50 (50% inhibition of binding of 3H-pyridostigmine to the antibody)” value was > 500 ng.
For `CNC(=O)Oc1ccc2c(c1)[C@]1(C)CCN(C)[C@@H]1N2C` [Physostigmmine] the value was > 500 ng; for `C[n+]1ccccc1/C=N/O` [Pralidoxime Chloride], > 500 ng.
